Data taken from patent US11234982B2, “Methods for treating ocular surface pain” (NOVARTIS AG, priority 2019, dated 2022).
Entries after “also recorded” stand apart in the source; their conditions may differ.

Legend:
[1] = system: patients undergoing photorefractive keratectomy (PRK) surgery; test: PRK study: oral rescue medication (ORM) use; format: in vivo, human; details: for Number of patients who did not use oral rescue medication: 2.5%; for Number of patients who did not use oral rescue medication / Amount of oral rescue medication (Number of pills), Mean (SD) / Amount of oral rescue medication (Number of pills), Range / Amount of oral rescue medication (mg/kg of body weight), Range / Amount of oral rescue medication (mg/kg of body weight), Mean (SD): N = 40; for Amount of oral rescue medication (mg/kg of body weight), Mean (SD): tablet counted as 330 mg
Experimental: (§1) The study was a proof of concept, double-masked, randomized, vehicle-controlled study of compound I administered as eye drops in addition to standard of care treatment in patients after PRK surgery. PRK surgery was performed as an outpatient procedure under topical anesthesia with removal of the corneal epithelium to expose the stroma for the laser ablation. Compound I dosing was as single eye drop of 2.5% (25 mg/ml, 0.925 mg/drop), administered four times daily (every six hours) in one eye from immediate post-op (time 0) to last dose at 72 hours.
Rescue medication consisted of oral analgesic (acetaminophen 300 mg+codeine 30 mg) as needed up to a total of 10 tabs/day or 1-2 tabs every 4 hours.
Rescue oral analgesics: It is not ethical to refuse pain control medication to patients postoperatively as part of a clinical trial. […] Because the use of oral rescue medication may be a potential confounder of the pain VAS evaluation, three approaches were used when analyzing pain VAS scores to account for the influence of pain meds (assuming 4 hours of rescue medication effect): (1) any recorded VAS score within 4 hours after use of rescue medication was considered missing; (2) all the recorded VAS scores was used; and (3) any recorded VAS scores within 4 hours after rescue medication use was imputed by the record taken prior to the rescue medication.

[2] = system: patients undergoing photorefractive keratectomy (PRK) surgery; test: PRK study: ocular safety assessments and vital signs; format: in vivo, human
Experimental: as §1
Adverse events and serious adverse events included an assessment of both systemic and ocular assessments. Systemic safety assessments included regular assessments of height and weight, vital signs, reporting medication errors including misuse/abuse, pregnancy reporting and early phase safety monitoring. The misuse/abuse, pregnancy reporting and early phase safety monitoring were not assessed for the study. Ocular safety assessments included the following: • Best-corrected visual acuity (BCVA) and uncorrected visual acuity (UCVA): Was measured at each visit using an ETDRS visual acuity chart at 4 meters (13 feet) or 1 meter (for patients that cannot read the 4 meter chart). The BCVA scoring was done based on the number of correctly read letters plus 30. If visual acuity was so poor that the patient could not read any of the largest letters at 1 meter, count fingers and hand movement vision and light perception was tested. • Intraocular Pressure (TOP): IOP measurements were conducted with applanation tonometry or Tonopen. • Dilated fundus exam: The dilated fundus examination included ophthalmoscopic assessments of the vitreous, retina/macula/choroid, and optic nerve. Evaluations for retinal tear/detachment, retinal hemorrhage, vitreous hemorrhage density, vitreous haze grading and abnormal findings were done and scored according to grading criteria. • Ocular hyperemia: Conjunctival redness of the bulbar conjunctiva in each eye at the slit lamp according to the McMonnies redness scale was graded. […] By adjusting the calibrated slit beam width and height, the maximum horizontal (wound width) and vertical dimensions (wound height) of the surgical epithelial wound was estimated. The evaluation was performed until wound closure and report of wound size as 0 horizontal and 0 vertical dimensions. • Slit-lamp biomicroscopy: Ocular signs (eyelids/conjunctiva, cornea, lens, and iris/anterior chamber) was assessed in both eyes by slit lamp biomicroscopy according to the grading criteria. • Blink rate: A blink was defined as a bilateral paroxysmal closure of the eyelids (duration<1 second) in the absence of a provoking external stimulus. Each blink assessment lasted for 2 min (or as close to 2 minutes as possible with minimum time 1 minute) and the obtained blink rate was averaged to calculate blink rate in blinks/min. • Tear production (Schirmer's test without anesthesia): The test was performed without anesthetic in both eyes simultaneously. Tear secretion was measured in millimeters of the length of strip wetted by tears. […] The strip was wetted with 1 drop of sterile saline and flicked to remove excess saline. The patient blinked several times to ensure dispersion of the dye throughout the tear film prior to grading on a scale of 0-3 (0=Normal, No staining; 1=Mild, Superficial stippling micropunctate staining; 2=Moderate, Macropunctate staining with some coalescent areas and 3=Severe, Numerous coalescent macropunctate areas and/or patches) for each of 5 zones (central plus 4 quadrants).

[3] = across the scheduled time points

Compound: CC(C)c1nc2cc(O)ccc2c(=O)n1-c1ccc(C#N)cc1 [Compound I, 4-(7-hydroxy-2-isopropyl-4-oxo-4H-quinazolin-3-yl)-benzonitrile]
- Amount of ORM (Number of pills), % Change (Compound I-Vehicle)/Vehicle ([1]; 0-6 hours post-operatively): −25%
- Amount of ORM (mg/kg of body weight), % Change (Compound I-Vehicle)/Vehicle ([1]; 0-6 hours post-operatively): −25%
- Number of patients who did not use oral rescue medication ([1]; 0-6 hours post-operatively): 23 (57.5%) n (%)
- Amount of oral rescue medication (Number of pills), Mean (SD) ([1]; 0-6 hours post-operatively): 0.75 (1.032) Number of pills
- Amount of oral rescue medication (Number of pills), Range ([1]; 0-6 hours post-operatively): 0.0-4.0 Number of pills
- Amount of oral rescue medication (mg/kg of body weight), Range ([1]; 0-6 hours post-operatively): 0.0-19.2 mg/kg of body weight
- Amount of oral rescue medication (mg/kg of body weight), Mean (SD) ([1]; 0-6 hours post-operatively): 3.32 (4.684) mg/kg of body weight
- Number of patients who did not use ORM, compound I-treated eye compared to Vehicle-treated eye ([1]; 0-6 hours, 0-12 hours and 0-24 hours post-operatively): higher
- Amount of ORM (Number of pills), % Change (Compound I-Vehicle)/Vehicle ([1]; 0-12 hours post-operatively): −15%
- Amount of ORM (mg/kg of body weight), % Change (Compound I-Vehicle)/Vehicle ([1]; 0-12 hours post-operatively): −17%
- Number of patients who did not use oral rescue medication ([1]; 0-12 hours post-operatively): 19 (47.5%) n (%)
- Amount of oral rescue medication (Number of pills), Mean (SD) ([1]; 0-12 hours post-operatively): 1.40 (1.780) Number of pills
- Amount of oral rescue medication (Number of pills), Range ([1]; 0-12 hours post-operatively): 0.0-6.0 Number of pills
- Amount of oral rescue medication (mg/kg of body weight), Range ([1]; 0-12 hours post-operatively): 0.0-28.7 mg/kg of body weight
- Amount of oral rescue medication (mg/kg of body weight), Mean (SD) ([1]; 0-12 hours post-operatively): 6.10 (8.062) mg/kg of body weight
- Amount of ORM (Number of pills), % Change (Compound I-Vehicle)/Vehicle ([1]; 0-24 hours post-operatively): −16%
- Amount of ORM (mg/kg of body weight), % Change (Compound I-Vehicle)/Vehicle ([1]; 0-24 hours post-operatively): −18%
- Number of patients who did not use oral rescue medication ([1]; 0-24 hours post-operatively): 16 (40.0%) n (%)
- Amount of oral rescue medication (Number of pills), Mean (SD) ([1]; 0-24 hours post-operatively): 2.35 (2.751) Number of pills
- Amount of oral rescue medication (Number of pills), Range ([1]; 0-24 hours post-operatively): 0.0-10.0 Number of pills
- Amount of oral rescue medication (mg/kg of body weight), Range ([1]; 0-24 hours post-operatively): 0.0-47.9 mg/kg of body weight
- Amount of oral rescue medication (mg/kg of body weight), Mean (SD) ([1]; 0-24 hours post-operatively): 10.17 (12.335) mg/kg of body weight
- Number of patients who did not use oral rescue medication ([1]; 0-2 days post-operatively): 11 (27.5%) n (%)
- Amount of ORM (Number of pills), % Change (Compound I-Vehicle)/Vehicle ([1]; 0-48 hours post-operatively): −13%
- Amount of ORM (mg/kg of body weight), % Change (Compound I-Vehicle)/Vehicle ([1]; 0-48 hours post-operatively): −14%
- Amount of oral rescue medication (Number of pills), Mean (SD) ([1]; 0-48 hours post-operatively): 4.05 (4.466) Number of pills
- Amount of oral rescue medication (Number of pills), Range ([1]; 0-48 hours post-operatively): 0.0-16.0 Number of pills
- Amount of oral rescue medication (mg/kg of body weight), Range ([1]; 0-48 hours post-operatively): 0.0-76.6 mg/kg of body weight
- Amount of oral rescue medication (mg/kg of body weight), Mean (SD) ([1]; 0-48 hours post-operatively): 17.59 (19.850) mg/kg of body weight
- Number of patients who did not use oral rescue medication ([1]; 0-3 days post-operatively): 11 (27.5%) n (%)
- Amount of ORM (Number of pills), % Change (Compound I-Vehicle)/Vehicle ([1]; 0-72 hours post-operatively): −14%
- Amount of ORM (mg/kg of body weight), % Change (Compound I-Vehicle)/Vehicle ([1]; 0-72 hours post-operatively): −15%
- Amount of oral rescue medication (Number of pills), Mean (SD) ([1]; 0-72 hours post-operatively): 4.33 (4.896) Number of pills
- Amount of oral rescue medication (Number of pills), Range ([1]; 0-72 hours post-operatively): 0.0-21.0 Number of pills
- Amount of oral rescue medication (mg/kg of body weight), Range ([1]; 0-72 hours post-operatively): 0.0-87.4 mg/kg of body weight
- Amount of oral rescue medication (mg/kg of body weight), Mean (SD) ([1]; 0-72 hours post-operatively): 18.70 (21.509) mg/kg of body weight
- Amount of ORM (mg/kg of body weight) during compound I vs. Vehicle treatment ([1]; every time interval): less
- ORM taken during compound I vs. Vehicle treatment (number of pills) ([1]; every time interval during the study): less ORM taken
- Ocular hyperemia (McMonnies scale) grade 4, compound I vs Vehicle treated eyes ([2]; Day 2 postoperatively (24 hours after PRK surgery)): less grade 4 hyperemia (all quadrants); also recorded: Fewer compound I-treated eyes showed severe conjunctival hyperemia
- Ocular hyperemia (McMonnies scale) grade 3, compound I vs Vehicle treated eyes ([2]; Day 3 (48 hours post-operative)): less grade 3 hyperemia
- Dilated fundus exam [2, 3]: No abnormal findings
- Slit-lamp biomicroscopy: aqueous flare and inflammatory cell grade, iris/anterior chamber, lens [2, 3]: No abnormalities were observed
- Changes in BCVA, IOP, slit-lamp biomicroscopy, dilated eye exam, blink rate, tear production, corneal staining, vital signs compared to Vehicle ([2]; after compound I administration): no clinically relevant changes
- Vital sign parameters (blood pressures, pulse rate, body temperature) ([2]; all patients during the study): within the normal range
- Increase in mean IOP values compared to Baseline ([2]; at the end of study): < 5 mmHg
- Corneal staining, compound I versus Vehicle ([2]; baseline, Day 8, EOS visit): No clinical differences were observed
- Best-corrected visual acuity (BCVA) and uncorrected visual acuity (UCVA), compound I vs Vehicle-treated eyes ([2]; throughout the study): did not result in any trend or obvious difference
- Blink rate, compound I vs Vehicle treatment ([2]; throughout the study): no trend across the scheduled time points or obvious differences
- Intraocular pressure, compound I vs Vehicle-treated eyes ([2]; throughout the study): No trend across the scheduled time points or obvious differences
